Results published in BindingDB's records for patent US10556914 (ABBVIE INC.; ABBVIE DEUTSCHLAND GMBH & CO. KG, 2020).

target: Gamma-aminobutyric acid type B receptor subunit 1/2 (UniProt O88871+Q9Z0U4); assay: Binding Assay
Protocol: The samples were incubated at room temperature for 60 minutes on a shaker. The incubation was stopped by rapid vacuum filtration over glass-fiber filter plates (UniFilter-96 well, GF/B membrane plates, PerkinElmer) using a 96-well plate harvester (TOMTEK Harvester). The UniFilter plate was washed five times with ice-cold wash buffer (50 mM Tris-HCl buffer, pH 7.7, 10 mM MgCl2, and 100 mM NaCl. After filtration the plate was dried for 90 minutes at 55° C. The plates were closed on the bottom with black sealing membranes, and liquid scintillation cocktail (35 μL, Betaplate Scint, PerkinElmer) was added to each well. After sealing the top of the plate, an additional incubation step of 90 minutes at room temperature followed before measuring the plate. The amount of membrane-bound [35S]GTPgS was measured using a 96-well plate reader (Microbeta , PerkinElmer).

Chain of Gamma-aminobutyric acid type B receptor subunit 1/2 (Q9Z0U4 whole entry): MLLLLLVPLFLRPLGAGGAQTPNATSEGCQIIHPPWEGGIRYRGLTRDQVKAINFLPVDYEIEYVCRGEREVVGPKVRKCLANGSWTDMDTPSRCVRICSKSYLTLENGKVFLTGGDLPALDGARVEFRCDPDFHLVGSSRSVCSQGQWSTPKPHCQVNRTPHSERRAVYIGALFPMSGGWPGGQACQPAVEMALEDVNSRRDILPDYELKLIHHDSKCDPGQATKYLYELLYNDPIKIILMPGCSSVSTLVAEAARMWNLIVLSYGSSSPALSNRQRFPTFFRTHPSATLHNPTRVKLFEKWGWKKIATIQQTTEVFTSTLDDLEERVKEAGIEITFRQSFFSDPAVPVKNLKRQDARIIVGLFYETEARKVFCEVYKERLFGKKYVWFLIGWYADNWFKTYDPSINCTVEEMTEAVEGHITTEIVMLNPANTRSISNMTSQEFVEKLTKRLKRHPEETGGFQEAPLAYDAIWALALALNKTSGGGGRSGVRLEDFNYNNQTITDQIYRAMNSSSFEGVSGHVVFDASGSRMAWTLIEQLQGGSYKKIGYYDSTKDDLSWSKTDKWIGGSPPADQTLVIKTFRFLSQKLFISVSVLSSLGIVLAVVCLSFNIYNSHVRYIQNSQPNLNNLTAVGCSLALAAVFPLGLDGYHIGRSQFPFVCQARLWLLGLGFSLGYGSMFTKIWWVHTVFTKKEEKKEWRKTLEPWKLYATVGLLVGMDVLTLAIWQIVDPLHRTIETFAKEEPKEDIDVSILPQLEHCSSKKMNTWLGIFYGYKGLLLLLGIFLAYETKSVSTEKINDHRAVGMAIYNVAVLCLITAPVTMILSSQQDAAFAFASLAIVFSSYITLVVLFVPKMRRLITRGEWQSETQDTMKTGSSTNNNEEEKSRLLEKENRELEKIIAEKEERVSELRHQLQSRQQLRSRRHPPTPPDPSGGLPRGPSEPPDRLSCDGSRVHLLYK
Chain of Gamma-aminobutyric acid type B receptor subunit 1/2 (O88871 whole entry): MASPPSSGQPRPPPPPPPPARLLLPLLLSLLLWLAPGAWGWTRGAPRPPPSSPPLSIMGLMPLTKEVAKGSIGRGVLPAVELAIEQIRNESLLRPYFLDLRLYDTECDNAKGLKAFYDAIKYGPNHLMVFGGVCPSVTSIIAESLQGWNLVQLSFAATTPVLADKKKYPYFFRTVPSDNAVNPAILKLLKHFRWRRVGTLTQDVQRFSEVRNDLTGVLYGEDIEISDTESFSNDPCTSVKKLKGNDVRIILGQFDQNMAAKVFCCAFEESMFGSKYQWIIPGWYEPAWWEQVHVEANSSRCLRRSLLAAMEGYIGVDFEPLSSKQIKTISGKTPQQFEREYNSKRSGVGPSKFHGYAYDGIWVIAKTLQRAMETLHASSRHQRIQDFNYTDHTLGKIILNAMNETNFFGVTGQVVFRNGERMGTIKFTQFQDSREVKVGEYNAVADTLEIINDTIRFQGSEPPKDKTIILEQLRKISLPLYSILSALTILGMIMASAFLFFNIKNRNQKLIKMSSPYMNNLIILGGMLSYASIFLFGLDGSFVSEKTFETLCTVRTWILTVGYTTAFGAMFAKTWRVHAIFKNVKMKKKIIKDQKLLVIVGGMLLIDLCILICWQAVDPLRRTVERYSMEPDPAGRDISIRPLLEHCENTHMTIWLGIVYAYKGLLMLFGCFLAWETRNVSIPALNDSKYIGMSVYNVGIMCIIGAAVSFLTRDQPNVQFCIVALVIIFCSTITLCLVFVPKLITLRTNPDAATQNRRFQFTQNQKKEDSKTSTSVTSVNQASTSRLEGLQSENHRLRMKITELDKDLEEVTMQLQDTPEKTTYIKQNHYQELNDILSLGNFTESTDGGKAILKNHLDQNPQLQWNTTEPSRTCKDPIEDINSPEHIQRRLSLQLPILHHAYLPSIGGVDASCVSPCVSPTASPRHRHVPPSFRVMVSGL

EC50	Compound
2.59 µM	CC(=O)Nc1cccc(-c2nn(Cc3ccc(Cl)cc3)c(=O)c3c(C(C)C)noc23)c1 [US10556914, Example 96]
3.54 µM	COc1ccc(OC)c(-c2nn(Cc3ccc(Cl)cc3)c(=O)c3c(C(C)C)noc23)c1 [US10556914, Example 13]
> 10 µM	COc1c(NC(C)=O)cccc1-c1nn(C(C)c2ccc(Cl)cc2)c(=O)c2c(C)noc12 (stereo not drawn) [US10556914, Example 33]
